For one assay, the system named is nuOXPHOS transcripts. The class given is cell-based, mouse.
The test system of another assay is mtOXPHOS transcripts. The class given is cell-based, mouse.
For assay [1], the system named is cellular dehydrogenase activity.
In another assay the test system is reactive oxygen species. The assay is classed as cell-based, mouse.
The next assay concerns OXPHOS gene expression. The assay is classed as cell-based, mouse.
The test system of assay [2] is mitochondrial membrane potential. The assay is classed as cell-based, mouse.
A further assay relates to cytochrome c. The assay is classed as cell-based, mouse.
[3] abbreviates: composite Z-score vs DMSO, Conc 20 μM.
Where [4] appears, read: Conc 20 μM, normalized score vs mock-treated (DMSO) wells.
The mark [5] stands for this setting: Table 4, C2C12 myotubes, 48 h, composite Z-score.
Where [6] appears, read: normalized composite Z-score vs mock-treated (DMSO) wells, Conc 20 μM.
Where [7] appears, read: 20 μM, composite Z-score vs DMSO.
[8] abbreviates: composite Z-score vs DMSO, Conc 4.42 μM.

SMILES strings stand for the structures. Where two headings read alike, the source gives them in different places.

In the assay on nuOXPHOS transcripts (setting [3]), `CC(C)[C@@H](C)C=C[C@@H](C)[C@H]1CC[C@H]2C3=CCC4CC(=O)CC[C@]4(C)[C@H]3CC[C@]12C` (stereo partly shown) [ergosta-7,22-dien-3-one] returned a nucOX of −0.764. Further, the mitoOX in the assay on mtOXPHOS transcripts (setting [3]) was −0.415. This compound displayed an MTT in assay [1] (setting [3]) of −2.474. Further, the ROS in the assay with reactive oxygen species (setting [3]) was 0.912. For the same compound, the GE-HTS in the assay on OXPHOS gene expression (setting [3]) is recorded as −0.708. The compound further yielded a ΔΨm in assay [2] (setting [3]) of −0.544. This compound also had a Viability with C2C12 myotubes (setting [3]) of −0.892. The same compound yielded a cyt c with cytochrome c (setting [3]) of 0.221.
For the compound `COc1c(O)cccc1O` [2-methoxyresorcinol], the “nucOX (composite Z-score)” value in the assay on nuOXPHOS transcripts (setting [4]) is −0.150. Also, the “mitoOX (composite Z-score)” value with mtOXPHOS transcripts (setting [4]) was 0.954. Also, the “MTT (composite Z-score)” value in assay [1] (setting [4]) is listed as 0.266. In addition, in the assay with reactive oxygen species (setting [4]), the “ROS (composite Z-score)” value was found to be 0.864. For the same compound, the “GE-HTS (composite Z-score)” value in the assay with OXPHOS gene expression (setting [4]) is given as 0.218. For the same compound, the “ΔΨm (composite Z-score)” value in assay [2] (setting [4]) is listed as −0.536. Also, the “Viability (composite Z-score)” value with C2C12 myotubes (setting [4]) amounted to 0.514. In addition, the “cyt c (composite Z-score)” value with cytochrome c (setting [4]) was −0.146.
Take `COc1cc2c(cc1OC)[C@@H]1C(=O)c3c(O)cc4c(c3O[C@@H]1CO2)C=CC(C)(C)O4` [alpha-toxicarol, reference compound]: the nucOX in the assay with nuOXPHOS transcripts (setting [3]) worked out at 0.124. Further, the mitoOX with mtOXPHOS transcripts (setting [3]) is −0.345. In addition, the MTT in assay [1] (setting [5]) and in assay [1] (setting [3]) was −1.982 throughout. Also, the ROS in the assay on reactive oxygen species (setting [5]) and in the assay on reactive oxygen species (setting [3]) was 0.101 throughout. Also, in the assay on OXPHOS gene expression (setting [3]), the GE-HTS is listed as −0.046. In addition, the ΔΨm in assay [2] (Table 4, C2C12 myotubes, 48 h, JC-1, composite Z-score) is given as 0.820; in assay [2] (setting [3]), 0.820. Also, the Viability in the assay with C2C12 myotubes (setting [5]) and in the assay with C2C12 myotubes (setting [3]) was 0.304 in each case. The compound also had a cyt c in the assay on cytochrome c (setting [3]) of −2.637.
In the case of `CC(C)=CCC[C@](C)(O)C1CC=C(C)CC1` (stereo partly shown) [bisabolol], the nucOX in the assay with nuOXPHOS transcripts (setting [3]) is listed as −0.983. Besides, the mitoOX in the assay on mtOXPHOS transcripts (setting [3]) is listed as −0.690. This compound also registered an MTT in assay [1] (setting [3]) of 0.031. The compound also returned an ROS with reactive oxygen species (setting [3]) of 0.061. The GE-HTS with OXPHOS gene expression (setting [3]) is recorded as −0.963. The compound further returned a ΔΨm in assay [2] (setting [3]) of −0.234. Further, in the assay with C2C12 myotubes (setting [3]), the Viability came to 0.300. The cyt c in the assay with cytochrome c (setting [3]) was determined as 0.738.
Turning to `C[C@@H]1C[C@H]2CC(=O)[C@H]3CCCN4CCC[C@H]2[C@]34C1` [lycopodine], the nucOX in the assay on nuOXPHOS transcripts (setting [3]) is −0.028. In the assay on mtOXPHOS transcripts (setting [3]), this compound came in with a mitoOX of −0.411. Further, in assay [1] (setting [3]), the MTT was −1.139. Moreover, in the assay with reactive oxygen species (setting [3]), the ROS is 0.500. Also, the GE-HTS in the assay on OXPHOS gene expression (setting [3]) is given as −0.150. Further, the ΔΨm in assay [2] (setting [3]) was −0.239. This compound came in with a Viability in the assay with C2C12 myotubes (setting [3]) of −0.466. For the same compound, in the assay with cytochrome c (setting [3]), the cyt c was −0.093.
On to `C[C@H]1C(=O)CC[C@@H]2[C@]1(C)CC[C@H]1[C@@]2(C)CC[C@@]2(C)[C@@H]3CC(C)(C)CC[C@]3(C)CC[C@]12C` [friedelin], for which, in the assay on nuOXPHOS transcripts (setting [3]), the nucOX is −1.150. Besides, in the assay with mtOXPHOS transcripts (setting [3]), the mitoOX is listed as −0.600. This compound also registered an MTT in assay [1] (setting [3]) of −1.362. The same compound returned an ROS in the assay on reactive oxygen species (setting [3]) of 0.449. The GE-HTS in the assay with OXPHOS gene expression (setting [3]) is listed as −1.043. Besides, the ΔΨm in assay [2] (setting [3]) is reported as −0.867. The Viability with C2C12 myotubes (setting [3]) is on record as 0.082. In the assay on cytochrome c (setting [3]), this compound displayed a cyt c of 0.614.
For the compound `CC(C)(O)[C@H]1CC[C@]2(C)[C@H]3CC[C@@H]4[C@@]5(C)CCCC(C)(C)[C@@H]5[C@@H](O)C[C@@]4(C)[C@]3(C)CC[C@@H]12` [zeorin], the nucOX with nuOXPHOS transcripts (setting [6]) was 0.278. This compound returned a mitoOX with mtOXPHOS transcripts (setting [6]) of 0.571. The MTT in assay [1] (setting [6]) is −0.387. In the assay on reactive oxygen species (setting [6]), this compound yielded an ROS of 0.166. In the assay on OXPHOS gene expression (setting [6]), this compound displayed a GE-HTS of 0.381. Moreover, in assay [2] (setting [6]), the ΔΨm was −0.941. In addition, the Viability in the assay on C2C12 myotubes (setting [6]) stood at 0.495. In addition, the cyt c in the assay with cytochrome c (setting [6]) turned out to be 0.088.
In the assay on nuOXPHOS transcripts (setting [7]), `CC(C)(O)[C@@H]1[C@H]2OC(=O)[C@@H]1[C@]1(O)C[C@H]3O[C@]34C(=O)O[C@H]2[C@]14C` [picrotin] showed a nucOX of 0.404. The same compound showed a mitoOX with mtOXPHOS transcripts (setting [7]) of −0.167. In addition, in assay [1] (setting [7]), the MTT is on record as −1.155. In the assay on reactive oxygen species (setting [7]), this compound showed an ROS of 0.917. The same compound displayed a GE-HTS in the assay with OXPHOS gene expression (setting [7]) of 0.253. Besides, the ΔΨm in assay [2] (setting [7]) is −0.167. The Viability with C2C12 myotubes (setting [7]) was −0.278. The compound further registered a cyt c with cytochrome c (setting [7]) of 0.184.
As to `O=C(Nc1ccc([N+](=O)[O-])cc1Cl)c1cc(Cl)ccc1O` [niclosamide], the nucOX with nuOXPHOS transcripts is reported as −1.007; with nuOXPHOS transcripts (setting [7]), −0.288. For the same compound, the mitoOX with mtOXPHOS transcripts is −0.755; in the assay on mtOXPHOS transcripts (setting [7]) it was −2.299. The MTT in assay [1] is given as −3.816; in assay [1] (setting [7]) it was −0.296. Further, the ROS with reactive oxygen species is −3.069; in the assay with reactive oxygen species (setting [7]), −3.862. Moreover, the GE-HTS with OXPHOS gene expression is listed as −0.976; in the assay with OXPHOS gene expression (setting [7]), −1.042. Moreover, the ΔΨm in assay [2] is −3.700; in assay [2] (setting [7]) it was −4.256. Further, the Viability was −1.410 in the assay on C2C12 myotubes and −0.944 in the assay on C2C12 myotubes (setting [7]). The values for the cyt c in the assay with cytochrome c and in the assay on cytochrome c (setting [7]) were −3.177 and −2.947, respectively.
With `COc1ccccc1/C=C/C(=O)O` [coumarinic acid methyl ether], the “nucOX (composite Z-score)” value in the assay on nuOXPHOS transcripts stood at 0.031. Besides, the “mitoOX (composite Z-score)” value in the assay on mtOXPHOS transcripts came out at 0.383. Moreover, in assay [1], the “MTT (composite Z-score)” value is −2.099. Also, the “ROS (composite Z-score)” value in the assay on reactive oxygen species amounted to 0.917. The “GE-HTS (composite Z-score)” value in the assay with OXPHOS gene expression amounted to 0.143. In addition, in assay [2], the “ΔΨm (composite Z-score)” value was −1.070. In the assay on C2C12 myotubes, the “Viability (composite Z-score)” value is recorded as −0.844. Moreover, the “cyt c (composite Z-score)” value in the assay with cytochrome c came to 0.170.
`Cc1c(N)c(=O)n(-c2ccccc2)n1C` [4-aminoantipyrine] yielded a nucOX with nuOXPHOS transcripts (setting [8]) of −0.041. Also, the mitoOX in the assay with mtOXPHOS transcripts (setting [8]) is listed as −0.450. In addition, the MTT in assay [1] (setting [8]) is listed as −1.470. Besides, the ROS in the assay on reactive oxygen species (setting [8]) came out at 0.564. This compound had a GE-HTS with OXPHOS gene expression (setting [8]) of −0.182. Further, in assay [2] (setting [8]), the ΔΨm is −4.045. Besides, the Viability in the assay on C2C12 myotubes (setting [8]) was found to be 0.530. The cyt c with cytochrome c (setting [8]) stood at 0.087.
With `C[C@]12CC[C@@H]3c4ccc(O)cc4CC[C@H]3[C@@H]1CC[C@@H]2O` [estradiol], the nucOX in the assay on nuOXPHOS transcripts (setting [3]) was 0.410. In the assay on mtOXPHOS transcripts (setting [3]), this compound had a mitoOX of −0.058. The MTT in assay [1] (setting [3]) was −1.040. Besides, the ROS with reactive oxygen species (setting [3]) stood at 0.310. This compound also registered a GE-HTS in the assay with OXPHOS gene expression (setting [3]) of 0.290. The compound further gave a ΔΨm in assay [2] (setting [3]) of −0.085. Besides, in the assay on C2C12 myotubes (setting [3]), the Viability is given as 0.400. In the assay on cytochrome c (setting [3]), this compound returned a cyt c of 0.389.
In turn, `CC1(C)[C@H]2CC[C@@]1(C)C(=O)C2` [1r-camphor] returned a nucOX in the assay with nuOXPHOS transcripts (setting [7]) of 0.107. The mitoOX with mtOXPHOS transcripts (setting [7]) was 0.023. Besides, the MTT in assay [1] (setting [7]) is on record as −0.402. This compound gave an ROS with reactive oxygen species (setting [7]) of 0.042. The GE-HTS in the assay with OXPHOS gene expression (setting [7]) is listed as 0.073. The compound further gave a ΔΨm in assay [2] (setting [7]) of −0.794. Also, in the assay with C2C12 myotubes (setting [7]), the Viability is given as −0.744. In the assay with cytochrome c (setting [7]), this compound had a cyt c of 0.372.
For `O=C1CC[C@]23/C=C/C(=O)NCCCCNCCCNC(=O)/C=C/c4ccc(c2c4)O[C@@H]3C1` [lunarine], the nucOX in the assay with nuOXPHOS transcripts (setting [3]) was −0.880. In addition, in the assay with mtOXPHOS transcripts (setting [3]), the mitoOX is recorded as −0.856. For the same compound, the MTT in assay [1] (setting [3]) was −0.938. For the same compound, the ROS in the assay on reactive oxygen species (setting [3]) was 0.385. Further, in the assay with OXPHOS gene expression (setting [3]), the GE-HTS is −0.945. This compound also yielded a ΔΨm in assay [2] (setting [3]) of −0.795. Moreover, the Viability in the assay with C2C12 myotubes (setting [3]) was −0.579. The same compound came in with a cyt c in the assay on cytochrome c (setting [3]) of 0.685.

The values are drawn from patent US20090143279A1 (priority 2007, published 2009).
